Laboratory results taken from US10034886B2, “GLP-1 receptor modulators” (Celgene International II SÀRL, priority 2014, dated 2018).

Each molecule was assayed against T1, GLP-1R (Homo sapiens, UniProt P43220) (assay: EC20 GLP-1(9-36) PAM cAMP assay: dose response of compound in the presence of fixed concentration of GLP-1(9-36)). Settings: GLP-1R CRE-bla CHO-K1 cells, compound dose response with fixed concentration of GLP-1(9-36), read-out: EC20 GLP-1(9-36) PAM EC50.
T1 construct: host or cells: GLP-1R CRE-bla CHO-K1 cells
Assay type: cell-based
Procedure, shortened: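 Positive allosteric modulation read as cAMP accumulation: compound titrations (12 points) combined with an EC20 level of GLP-1(9-36) on CHO-K1 GLP-1R CRE-bla cells, IBMX present, 30 min, 37 °C, pH 7.4 buffer. Luminescence converted to cAMP via standards; non-linear fit gave EC50 and Emax.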

T1 sequence (P43220 24-463): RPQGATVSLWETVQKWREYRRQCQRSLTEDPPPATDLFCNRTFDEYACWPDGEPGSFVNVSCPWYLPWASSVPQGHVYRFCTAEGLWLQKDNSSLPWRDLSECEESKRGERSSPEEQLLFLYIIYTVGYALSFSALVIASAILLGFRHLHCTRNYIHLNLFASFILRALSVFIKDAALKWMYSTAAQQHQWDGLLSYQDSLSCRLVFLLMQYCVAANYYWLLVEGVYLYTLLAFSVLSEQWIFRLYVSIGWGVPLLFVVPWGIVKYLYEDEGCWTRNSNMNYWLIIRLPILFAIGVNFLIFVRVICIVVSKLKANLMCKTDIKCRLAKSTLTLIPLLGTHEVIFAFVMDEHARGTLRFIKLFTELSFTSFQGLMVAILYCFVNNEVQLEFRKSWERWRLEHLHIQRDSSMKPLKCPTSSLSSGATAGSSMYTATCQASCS
T1 sequence (P01275 100-127 partner limits assumed): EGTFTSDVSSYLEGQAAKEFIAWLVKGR

| EC50 | Compound |
| --- | --- |
| < 0.8 µM | CCCOc1ccc(-c2ccc(-c3cnc(-c4ccc(C[C@H](NC(=O)c5ccc(C(C)(C)C)s5)C(=O)N5CC(C(=O)O)C5)cc4)nc3)c(F)c2)cc1 [Compound 1331] |
| 0.8 to 2.5 µM | CCCCc1ccc(C2CCN(c3cnc(-c4ccc(C[C@H](NC(=O)c5ccc(C(C)(C)C)s5)C(=O)N5CC(C(=O)O)C5)cc4)nc3)C2)cc1 (stereo partly drawn) [Compound 1505] |
| 0.8 to 2.5 µM | Cc1cccc(/C=C/c2cnc(-c3ccc(C[C@H](NC(=O)c4ccc(C(C)(C)C)s4)C(=O)N[C@H](C)C(=O)O)cc3)nc2)c1 [Compound 1254] |
| < 0.8 µM | CCc1ccc(C2CCN(c3cnc(-c4ccc(C[C@H](NC(=O)c5ccc(C(C)(C)C)s5)C(=O)N5CC(C(=O)O)C5)cc4)nc3)CC2)cc1 [Compound 1474] |
| 0.8 to 2.5 µM | CCc1ccc(C#Cc2cnc(-c3ccc(C[C@H](NC(=O)c4ccc(C(C)(C)C)s4)C(=O)N[C@H](C)C(=O)O)cc3)nc2)cc1 [Compound 1276] |
| 0.8 to 2.5 µM | C[C@@H](NC(=O)[C@H](Cc1ccc(-c2ncc(/C=C/c3ccc(Cl)cc3)cn2)cc1)NC(=O)c1ccc(C(C)(C)C)s1)C(=O)O [Compound 1250] |
| < 0.8 µM | CC(C)(C)c1ccc(C(=O)N[C@@H](Cc2ccc(-c3ncc(-c4ccc(-c5ccc(C(F)(F)F)c(F)c5)cc4F)cn3)cc2)C(=O)N2CC(C(=O)O)C2)s1 [Compound 1217] |
| < 0.8 µM | CCCc1ccc(-c2ccc(-c3cnc(-c4ccc(C[C@H](NC(=O)c5ccc(C(C)(C)C)s5)C(=O)N5CC(C(=O)O)C5)cc4)nc3)c(F)c2)cc1 [Compound 1208] |
| 0.8 to 2.5 µM | CC(C)CCCOc1ccc(-c2cnc(-c3ccc(C[C@H](NC(=O)c4ccc(C(C)C)cc4)C(=O)N4CC(C(=O)O)C4)cc3)nc2)cc1 [Compound 1227] |
| 0.8 to 2.5 µM | CCC[C@H]1CC[C@H](C2CCN(c3cnc(-c4ccc(C[C@H](NC(=O)c5ccc(C)cc5)C(=O)N5CC(C(=O)O)C5)cc4)nc3)CC2)CC1 [Compound 1528] |
| < 0.8 µM | C[C@@H](NC(=O)[C@H](Cc1ccc(-c2ncc(N3CCN(c4ccc(C(C)(C)C)cc4)C3=O)cn2)cc1)NC(=O)c1ccc(C(C)(C)C)s1)C(=O)O [Compound 1268] |
| 0.8 to 2.5 µM | CCCOc1ccc(-c2ccc(-c3cnc(-c4ccc(C[C@H](NC(=O)c5ccc(C(C)(C)C)s5)C(=O)N[C@H](C)C(=O)O)cc4)nc3)cc2)cc1 [Compound 1288] |

Same assay, conditions: dose response of compound in presence of fixed concentration of GLP-1(9-36), GLP-1R CRE-bla CHO-K1 cells, read-out: EC20 GLP-1(9-36) PAM EC50

| EC50 | Compound |
| --- | --- |
| 2.5 to 5 µM | CCCCCCCOc1ccc(-c2cnc(-c3ccc(C[C@H](NC(=O)c4ccc(C(C)(C)C)s4)C(=O)NC(C(=O)O)C(O)c4cccc(Cl)c4)cc3)nc2)cc1 (stereo partly drawn) [Compound 902] |
| 0.8 to 2.5 µM | CC(C)(C)c1ccc(C(=O)N[C@@H](Cc2ccc(-c3ncc(-c4ccc(OCCC5CCCCC5)cc4)cn3)cc2)C(=O)NCCC(=O)O)cc1 [Compound 474, (S)-3-(2-(4-(tert-butyl)benzamido)-3-(4-(5-(4-(2-cyclohexylethoxy)phenyl)-pyrimidin-2-yl)phenyl)propanamido)propanoic acid] |
| < 0.8 µM | CCCCCCCOc1ccc(-c2cnc(-c3ccc(C[C@H](NC(=O)c4ccc(C(C)(C)C)cc4)C(=O)NC(Cn4cncn4)C(=O)O)cc3)nc2)cc1 (stereo partly drawn) [Compound 467, 2-((S)-2-(4-(tert-butyl)benzamido)-3-(4-(5-(4-(heptyloxy)phenyl)pyrimidin-2-yl)phenyl)propanamido)-3-(1H-1,2,4-triazol-1-yl)propanoic acid] |
| 0.8 to 2.5 µM | CC(C)Oc1ccc(-c2cnc(-c3ccc(C[C@H](NC(=O)c4ccc(C(C)(C)C)s4)C(=O)N4CC(C(=O)O)C4)cc3)nc2)cc1 [Compound 782] |
| 0.8 to 2.5 µM | CCCCCCCOc1ccc(-c2cnc(-c3ccc(C[C@H](NC(=O)c4ccc(CC)s4)C(=O)N4CC(C(=O)O)C4)cc3)nc2)cc1 [Compound 1110] |
| 2.5 to 5 µM | COc1ccc(-c2cnc(-c3ccc(C[C@H](NC(=O)c4ccc(C(C)(C)C)s4)C(=O)N[C@H](C)C(=O)O)cc3)nc2)cc1C12CC3CC(CC(C3)C1)C2 [Compound 1054] |
| 2.5 to 5 µM | CCCCCCCOc1ccc(-c2cnc(-c3ccc(C[C@H](NC(=O)c4ccc(C(C)(C)C)s4)C(=O)N4CC(C(=O)N(C)C)C4)cc3)nc2)cc1 [Compound 974] |
| 0.8 to 2.5 µM | CCCCCCCOc1ccc(-c2cnc(-c3ccc(C[C@H](NC(=O)c4ccc(C(C)(C)C)s4)C(=O)N[C@@H](CC(=O)N(C)CCN(C)C)C(=O)O)cc3)nc2)cc1 [Compound 520] |
| 0.8 to 2.5 µM | CCCCCCCOc1ccc(-c2cnc(-c3ccc(C[C@H](NC(=O)c4ccc(C(C)(C)C)s4)C(=O)N[C@@H](CCC)C(=O)O)cc3)nc2)cc1 [Compound 403] |
| < 0.8 µM | CC[C@H]1CC[C@H](c2ccc(-c3cnc(-c4ccc(C[C@H](NC(=O)c5ccc(C6CC6)s5)C(=O)N5CC(C(=O)O)C5)cc4)nc3)cc2)CC1 [Compound 1154] |
| 0.8 to 2.5 µM | CCCCCCCOc1ccc(-c2cnc(-c3ccc(C[C@H](NC(=O)c4ccc(C(C)(C)C)nc4)C(=O)N4CC(C(=O)O)C4)cc3)nc2)cc1 [Compound 1117] |
| 5 to 10 µM | CCCCCCCOc1ccc(-c2cnc(-c3ccc(C[C@H](NC(=O)c4ccc(C(C)(C)C)cc4)C(=O)NC(C)CC(=O)O)cc3)nc2)cc1 (stereo partly drawn) [Compound 537] |
| 2.5 to 5 µM | C[C@@H](NC(=O)[C@H](Cc1ccc(-c2ncc(-c3ccc(C(C)(C)C)cc3)cn2)cc1)NC(=O)c1ccc(C(C)(C)C)cc1)C(=O)O [Compound 720] |
| < 0.8 µM | CC[C@H]1CC[C@H](c2ccc(-c3cnc(-c4ccc(C[C@H](NC(=O)c5ccc(C6(C)CC6)cc5)C(=O)N5CC(C(=O)O)C5)cc4)nc3)cc2)CC1 [Compound 1159] |
| 0.8 to 2.5 µM | CCCCCCCOc1ccc(-c2cnc(-c3ccc(C[C@H](NC(=O)c4ccc(C(C)(C)CC)cc4)C(=O)N4CC(C(=O)O)C4)cc3)nc2)cc1 [Compound 1121] |
| < 0.8 µM | CCCCCCCOc1ccc(-c2cnc(-c3ccc(C[C@@H](NC(=O)c4ccc(C(C)(C)C)cc4)C(=O)N[C@@H](C)C(=O)O)cc3)nc2)cc1 [Compound 436] |
| 0.8 to 2.5 µM | CCCCCCCOc1ccc(-c2cnc(-c3ccc(C[C@H](NC(=O)c4cnc(C(C)(C)C)nc4)C(=O)N4CC[C@H](C(=O)O)C4)cc3)nc2)cc1 [Compound 856] |
| 0.8 to 2.5 µM | CCCCCCCOc1ccc(-c2cnc(-c3ccc(C[C@H](NC(=O)c4ccc(C(C)(C)C)s4)C(=O)NCC4CCNC4)cc3)nc2)cc1 (stereo partly drawn) [Compound 390] |
| 0.8 to 2.5 µM | CCCCCCCOc1ccc(-c2cnc(-c3ccc(C[C@H](NC(=O)c4ccc(C(C)(C)C)s4)C(=O)N4CC[C@H](C(=O)NS(C)(=O)=O)C4)cc3)nc2)cc1 [Compound 884] |
| < 0.8 µM | C[C@@H](NC(=O)[C@H](Cc1ccc(-c2ncc(-c3ccc(-c4ccc(C(F)(F)F)cc4)c(F)c3)cn2)cc1)NC(=O)c1ccc(C(C)(C)C)s1)C(=O)O [Compound 1140] |
| 5 to 10 µM | C[C@@H](NC(=O)[C@H](Cc1ccc(-c2ncc(-c3ccc(OCc4ccccc4)nc3)cn2)cc1)NC(=O)c1ccc(C(C)(C)C)s1)C(=O)O [Compound 1040] |
| < 0.8 µM | CCCCCCCOc1ccc(-c2cnc(-c3ccc(C[C@@H](NC(=O)c4ccc(C(C)(C)C)cc4)C(=O)N[C@H](C)C(=O)O)cc3)nc2)cc1 [Compound 437] |
| 2.5 to 5 µM | C[C@@H](NC(=O)[C@H](Cc1ccc(-c2ncc(-c3cc(OC(F)(F)F)ccc3F)cn2)cc1)NC(=O)c1ccc(C(C)(C)C)s1)C(=O)O [Compound 1026] |
| 0.8 to 2.5 µM | Cc1cc(-c2cnc(-c3ccc(C[C@H](NC(=O)c4ccc(C(C)(C)C)s4)C(=O)N4CCC[C@H]4C(=O)O)cc3)nc2)ccc1OC(C)C [Compound 1127] |
